What all share (assay): In vitro antibacterial activity test (broth microdilution)
Type in all cases: cell-based
A general note: In broth dilution the organism is exposed to a series of concentrations in liquid medium.

For one assay, the system named is K. pneumoniae β9. To be noted: K. pneumoniae β9. The protocol:
(§1) To evaluate antibacterial activity of each of the compounds of Examples 1 to 68, in vitro antibacterial activity test was performed.
(§2) The in vitro antibacterial activity was evaluated by measuring MIC90 (ug/mL) of each of the compounds of Examples 1 to 68, which is defined as the lowest concentration of an antibiotic that will inhibit the visible growth of 90% of microorganisms after incubation as compared with a control group to which the antibiotic is not treated. MIC90 values were measured by the broth microdilution method developed by the Clinical and Laboratory Standards Institute (CLSI) (see CLSI M7-A5, Methods for Dilution Antimicrobial Susceptibility Test for Bacteria that Grow Aerobically-Fifth Edition (2000): CLSI, Villanova, Pa.).
(§3) In vitro antibacterial activity was measured with respect to the following 19 clinical isolates: M. catarrhalis; P. aeruginosa (5 strains); K. pneumoniae (6 strains); A. baumannii (3 strains); E. coli (2 strains); A. calcoaceticus; and E. cloacae.
(§4) Test compounds each (the cephalosporin derivative compounds prepared in Examples 1 to 68) were dissolved in DMSO at the concentration of 10,240 ug/mL, were diluted by two fold with DMSO, and then were diluted by twenty fold with sterilized distilled water. The final concentration in the antibacterial activity test was in the range of […] to 128 ug/mL, and the final concentration of DMSO used as an adjuvant was 2.5% (V/V).

A further assay has as its system P. aeruginosa 43. The settings on record: P. aeruginosa 43. On the procedure:
as §1, §2, §3, §4

For the next assay, the system named is M. catarrhalis 2524. To be noted: Moraxella catarrhalis; M. catarrhalis 2524; read-out: MIC90. On the procedure:
as §1, §2, §3, §4

In the next assay the test system is E. coli β4. The protocol: as §1, §2, §3, §4
For another assay, the system named is P. aeruginosa 40. On the procedure: as §1, §2, §3, §4
In another assay the test system is E. cloacae β19. On the procedure: as §1, §2, §3, §4
The next assay has as its system P. aeruginosa 1912E. On the procedure: as §1, §2, §3, §4
A further assay deals with K. pneumoniae β14. The protocol:
as §1, §2, §3, §4

The next assay deals with K. pneumoniae 2011E. The settings on record: K. pneumoniae 2011E. The protocol:
as §1, §2, §3, §4

The subject of the next assay is E. coli AG100. The protocol:
as §1, §2, §3, §4

The subject of a further assay is P. aeruginosa 37. The protocol: as §1, §2, §3, §4
In another assay the test system is K. pneumoniae β11. The settings on record: K. pneumoniae β11. On the procedure:
as §1, §2, §3, §4

In the next assay the test system is A. baumannii 46. To be noted: A. baumannii 46. On the procedure:
as §1, §2, §3, §4

For a further assay, the system named is K. pneumoniae β10. The settings on record: K. pneumoniae β10. On the procedure: as §1, §2, §3, §4
For a further assay, the system named is K. pneumoniae β13. To be noted: K. pneumoniae β13. The protocol:
as §1, §2, §3, §4

A further assay relates to P. aeruginosa 6065Y. The settings on record: Pseudomonas aeruginosa, read-out: MIC90. The protocol:
as §1, §2, §3, §4

Assay [1] concerns A. calcoaceticus ATCC15473. The settings on record: A. calcoaceticus ATCC15473. The protocol: as §1, §2, §3, §4
The subject of the next assay is A. baumannii 52. The settings on record: A. baumannii 52. On the procedure:
as §1, §2, §3, §4

In a further assay the test system is A. baumannii 49. To be noted: A. baumannii 49. On the procedure: as §1, §2, §3, §4
The mark [2] stands for this setting: Klebsiella pneumoniae, read-out: MIC90.
The mark [3] stands for this setting: Pseudomonas aeruginosa, read-out: MIC90.
The mark [4] stands for this setting: Escherichia coli, read-out: MIC90.
Setting [5] is: Pseudomonas aeruginosa, 40, P. aeruginosa 40, read-out: MIC90.
Setting [6] is: Enterobacter cloacae, read-out: MIC90.
Where [7] appears, read: Pseudomonas aeruginosa, 1912E, read-out: MIC90.
The mark [8] stands for this setting: Klebsiella pneumoniae, 2011E, read-out: MIC90.
The mark [9] stands for this setting: Escherichia coli, AG100, E. coli AG100, read-out: MIC90.
The mark [10] stands for this setting: Pseudomonas aeruginosa, 37, P. aeruginosa 37, read-out: MIC90.
[11] abbreviates: Acinetobacter baumannii, read-out: MIC90.
Where [12] appears, read: Acinetobacter calcoaceticus, read-out: MIC90.

In brackets after ≈: the same amount, converted by molar mass. Where two headings read alike, the source gives them in different places.

The term MIC90 denotes an inhibitory concentration at the 90% level, which refers to growth in some studies and to a panel of isolates in others.

On to `CC(C)(O/N=C(\C(=O)N[C@@H]1C(=O)N2C(C(=O)[O-])=C(C[n+]3cnc(N)c(NCCCCNC(=O)c4cc(=O)c(O)cn4O)c3)CSC12)c1csc(N)n1)C(=O)O` (stereo partly shown) [Compound 7], for which the MIC90 was below 0.0625 mg/L in the assay on K. pneumoniae β9 (setting [2]); 0.25 mg/L (≈ 0.312 µM) in the assay on P. aeruginosa 43 (setting [3]); 2 mg/L (≈ 2.49 µM) in the assay with M. catarrhalis 2524; 0.125 mg/L (≈ 0.156 µM) in the assay with E. coli β4 (setting [4]); 0.125 mg/L (≈ 0.156 µM) in the assay with P. aeruginosa 40 (setting [5]); 1 mg/L (≈ 1.25 µM) in the assay on E. cloacae β19 (setting [6]). The MIC90 was 0.5 mg/L (≈ 0.624 µM) in the assay with P. aeruginosa 1912E (setting [7]); 32 mg/L (≈ 39.9 µM) in the assay on K. pneumoniae β14 (setting [2]); 2 mg/L (≈ 2.49 µM) in the assay with K. pneumoniae 2011E (setting [8]); below 0.0625 mg/L with E. coli AG100 (setting [9]); 0.125 mg/L (≈ 0.156 µM) in the assay with P. aeruginosa 37 (setting [10]); 16 mg/L (≈ 20 µM) in the assay on K. pneumoniae β11 (setting [2]). Also, the MIC90 is 4 mg/L (≈ 4.99 µM) with A. baumannii 46 (setting [11]); 4 mg/L (≈ 4.99 µM) in the assay on K. pneumoniae β10 (setting [2]); below 0.0625 mg/L with K. pneumoniae β13 (setting [2]); 1 mg/L (≈ 1.25 µM) with P. aeruginosa 6065Y; 1 mg/L (≈ 1.25 µM) in assay [1] (setting [12]); 16 mg/L (≈ 20 µM) with A. baumannii 52 (setting [11]). Also, the MIC90 in the assay on A. baumannii 49 (setting [11]) is 8 mg/L (≈ 9.98 µM).
In the case of `C[C@H](O/N=C(\C(=O)N[C@@H]1C(=O)N2C(C(=O)[O-])=C(/C=C/C[n+]3cnc(N)c(NCCNC(=O)c4cc(=O)c(O)cn4O)c3)CSC12)c1csc(N)n1)C(=O)O` (stereo partly shown) [Compound 9], the MIC90 with K. pneumoniae β9 (setting [2]) was 1 mg/L (≈ 1.27 µM); in the assay with P. aeruginosa 43 (setting [3]), 0.25 mg/L (≈ 0.318 µM); with M. catarrhalis 2524, 0.5 mg/L (≈ 0.636 µM); in the assay with E. coli β4 (setting [4]) it was 1 mg/L (≈ 1.27 µM); with P. aeruginosa 40 (setting [5]) it was below 0.0625 mg/L; with E. cloacae β19 (setting [6]), 2 mg/L (≈ 2.55 µM). Moreover, the MIC90 was 0.25 mg/L (≈ 0.318 µM) with P. aeruginosa 1912E (setting [7]); 64 mg/L (≈ 81.4 µM) with K. pneumoniae β14 (setting [2]); 0.125 mg/L (≈ 0.159 µM) in the assay on K. pneumoniae 2011E (setting [8]); below 0.0625 mg/L in the assay with E. coli AG100 (setting [9]); 0.25 mg/L (≈ 0.318 µM) in the assay on P. aeruginosa 37 (setting [10]); above 128 mg/L in the assay with K. pneumoniae β11 (setting [2]). Also, the MIC90 in the assay with A. baumannii 46 (setting [11]) is 0.5 mg/L (≈ 0.636 µM); in the assay on K. pneumoniae β10 (setting [2]), 0.125 mg/L (≈ 0.159 µM); in the assay with K. pneumoniae β13 (setting [2]) it was 0.25 mg/L (≈ 0.318 µM); with P. aeruginosa 6065Y it was 0.25 mg/L (≈ 0.318 µM); in assay [1] (setting [12]), 0.5 mg/L (≈ 0.636 µM); with A. baumannii 52 (setting [11]) it was above 128 mg/L. For the same molecule, in the assay with A. baumannii 49 (setting [11]), the MIC90 is above 128 mg/L.
`CC(C)(O/N=C(\C(=O)N[C@@H]1C(=O)N2C(C(=O)[O-])=C(/C=C/C[n+]3cnc(N)c(NCCNC(=O)c4cc(=O)c(O)cn4O)c3)CSC12)c1csc(N)n1)C(=O)O` (stereo partly shown) [Compound 10]: the MIC90 in the assay with K. pneumoniae β9 was found to be 0.25 mg/L (≈ 0.313 µM); in the assay on P. aeruginosa 43, 1 mg/L (≈ 1.25 µM); in the assay with M. catarrhalis 2524 it was 0.5 mg/L (≈ 0.625 µM); in the assay with E. coli β4, 0.5 mg/L (≈ 0.625 µM); with P. aeruginosa 40 (P. aeruginosa 40), 1 mg/L (≈ 1.25 µM); in the assay with E. cloacae β19, 0.5 mg/L (≈ 0.625 µM). In addition, the MIC90 is 4 mg/L (≈ 5 µM) against P. aeruginosa 1912E; 8 mg/L (≈ 10 µM) in the assay with K. pneumoniae β14; 2 mg/L (≈ 2.5 µM) in the assay with K. pneumoniae 2011E; 0.125 mg/L (≈ 0.156 µM) against E. coli AG100 (E. coli AG100); 2 mg/L (≈ 2.5 µM) in the assay with P. aeruginosa 37 (P. aeruginosa 37); 32 mg/L (≈ 40 µM) against K. pneumoniae β11. The MIC90 with A. baumannii 46 was 8 mg/L (≈ 10 µM); in the assay on K. pneumoniae β10, below 0.0625 mg/L; with K. pneumoniae β13, 2 mg/L (≈ 2.5 µM); in the assay with P. aeruginosa 6065Y, 4 mg/L (≈ 5 µM); in [1] it was 2 mg/L (≈ 2.5 µM); with A. baumannii 52 it was above 128 mg/L. The molecule also gave an MIC90 in the assay with A. baumannii 49 above 128 mg/L.
For the molecule `CC(C)(O/N=C(\C(=O)N[C@@H]1C(=O)N2C(C(=O)[O-])=C(/C=C/C[n+]3cnc(N)c(NC(=O)CCNC(=O)c4cc(=O)c(O)cn4O)c3)CSC12)c1csc(N)n1)C(=O)O` (stereo partly shown) [Compound 12], the MIC90 with K. pneumoniae β9 (setting [2]) worked out at 0.25 mg/L (≈ 0.302 µM); in the assay on P. aeruginosa 43 (setting [3]) it was 1 mg/L (≈ 1.21 µM); with M. catarrhalis 2524 it was 1 mg/L (≈ 1.21 µM); in the assay on E. coli β4 (setting [4]) it was 0.25 mg/L (≈ 0.302 µM); in the assay with P. aeruginosa 40 (setting [5]), 1 mg/L (≈ 1.21 µM); in the assay on E. cloacae β19 (setting [6]), 4 mg/L (≈ 4.83 µM). The MIC90 turned out to be 1 mg/L (≈ 1.21 µM) in the assay on P. aeruginosa 1912E (setting [7]); 8 mg/L (≈ 9.66 µM) in the assay with K. pneumoniae β14 (setting [2]); 2 mg/L (≈ 2.42 µM) in the assay with K. pneumoniae 2011E (setting [8]); 0.25 mg/L (≈ 0.302 µM) with E. coli AG100 (setting [9]); 8 mg/L (≈ 9.66 µM) in the assay with P. aeruginosa 37 (setting [10]); 64 mg/L (≈ 77.3 µM) in the assay on K. pneumoniae β11 (setting [2]). The MIC90 in the assay with A. baumannii 46 (setting [11]) is 4 mg/L (≈ 4.83 µM); with K. pneumoniae β10 (setting [2]), 0.25 mg/L (≈ 0.302 µM); with K. pneumoniae β13 (setting [2]), below 0.0625 mg/L; in the assay on P. aeruginosa 6065Y it was 2 mg/L (≈ 2.42 µM); in assay [1] (setting [12]), 1 mg/L (≈ 1.21 µM); in the assay with A. baumannii 52 (setting [11]) it was above 128 mg/L. Moreover, in the assay with A. baumannii 49 (setting [11]), the MIC90 is above 128 mg/L.
